# Biological target: xanthine oxidase (Homo sapiens, UniProt P47989)
# Assay: Fluorescence-based xanthine oxidase activity assay
# Assay type: biochemical
# Conditions: verbal rating
# Sequence of xanthine oxidase (P47989 whole entry, species assumed): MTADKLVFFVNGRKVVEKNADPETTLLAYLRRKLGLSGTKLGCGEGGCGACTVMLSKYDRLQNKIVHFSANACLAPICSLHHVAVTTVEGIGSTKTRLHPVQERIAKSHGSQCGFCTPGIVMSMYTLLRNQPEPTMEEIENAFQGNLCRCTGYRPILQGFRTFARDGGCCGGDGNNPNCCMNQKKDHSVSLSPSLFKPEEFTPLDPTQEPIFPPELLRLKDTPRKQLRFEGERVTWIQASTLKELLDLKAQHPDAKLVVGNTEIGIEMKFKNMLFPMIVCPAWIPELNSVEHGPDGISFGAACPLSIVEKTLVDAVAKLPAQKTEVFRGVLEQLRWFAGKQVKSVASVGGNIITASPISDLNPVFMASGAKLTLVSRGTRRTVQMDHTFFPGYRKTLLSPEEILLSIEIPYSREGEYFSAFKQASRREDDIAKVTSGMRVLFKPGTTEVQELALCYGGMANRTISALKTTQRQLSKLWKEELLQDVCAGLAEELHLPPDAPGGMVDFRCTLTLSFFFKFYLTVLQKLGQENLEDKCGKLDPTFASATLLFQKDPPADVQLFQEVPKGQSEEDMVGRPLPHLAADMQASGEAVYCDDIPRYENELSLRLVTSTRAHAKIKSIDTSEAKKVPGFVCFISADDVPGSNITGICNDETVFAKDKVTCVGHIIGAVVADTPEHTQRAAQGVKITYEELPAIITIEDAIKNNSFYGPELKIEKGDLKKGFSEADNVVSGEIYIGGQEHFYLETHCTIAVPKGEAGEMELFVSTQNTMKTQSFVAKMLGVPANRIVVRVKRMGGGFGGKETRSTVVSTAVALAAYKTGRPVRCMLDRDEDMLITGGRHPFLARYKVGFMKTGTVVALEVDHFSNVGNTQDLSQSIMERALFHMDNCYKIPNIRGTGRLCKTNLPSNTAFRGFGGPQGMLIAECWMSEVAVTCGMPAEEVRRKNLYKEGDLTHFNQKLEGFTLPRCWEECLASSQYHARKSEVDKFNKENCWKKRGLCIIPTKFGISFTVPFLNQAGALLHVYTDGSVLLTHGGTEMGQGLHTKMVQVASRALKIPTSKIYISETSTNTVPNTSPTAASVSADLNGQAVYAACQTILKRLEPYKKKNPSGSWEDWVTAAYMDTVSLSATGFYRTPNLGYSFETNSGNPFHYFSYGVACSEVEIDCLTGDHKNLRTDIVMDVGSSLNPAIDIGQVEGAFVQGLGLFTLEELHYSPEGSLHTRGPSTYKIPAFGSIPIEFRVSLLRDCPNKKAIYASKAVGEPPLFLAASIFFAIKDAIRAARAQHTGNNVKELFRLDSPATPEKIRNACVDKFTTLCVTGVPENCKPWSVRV
row,SMILES,inhibition of xanthine oxidase compared to allopurinol
1,"Cn1c(O)c(C(=N)Nc2ccc(-c3cnn[nH]3)cc2)c(=O)n(C)c1=O [Formula (If), N-(4-(1H-1,2,3-triazol-5-yl)phenyl)-6-hydroxy-1,3-dimethyl-2,4-dioxo-1,2,3,4-tetrahydropyrimidine-5-carboximidamide]",particularly potent inhibitors
2,"CC(C)Sc1nc(O)c(C(=O)Nc2ccc(-c3c[nH]nn3)cc2)c(=O)[nH]1 [Formula (IId), N-(4-(1H-1,2,3-triazol-5-yl)phenyl)-4-hydroxy-2-(isopropylthio)-6-oxo-1,6-dihydropyrimidine-5-carboxamide]",particularly potent inhibitors
3,"Nc1[nH]c(=O)[nH]c(=O)c1C(=O)Nc1ccc(-c2c[nH]nn2)cc1 [Formula (Ik), N-(4-(1H-1,2,3-triazol-5-yl)phenyl)-6-amino-2,4-dioxo-1,2,3,4-tetrahydropyrimidine-5-carboxamide]",particularly potent inhibitors
4,"Cn1c(=O)[nH]c(O)c(C(=O)Nc2ccc(-c3cnn[nH]3)cc2)c1=O [Formula (Ig), N-(4-(1H-1,2,3-triazol-4-yl)phenyl)-2,4-dihydroxy-1-methyl-6-oxo-1,6-dihydropyrimidine-5-carboxamide]",particularly potent inhibitors
5,Cn1c(=O)[nH]c(O)c(C(=N)Nc2ccc(-c3cnn[nH]3)cc2)c1=O [Formula (Ih)],particularly potent inhibitors
6,"N=C(Nc1ccc(-c2cnn[nH]2)cc1)c1c(O)[nH]c(=O)[nH]c1=O [Formula (Ia), N-(4-(1H-1,2,3-triazol-4-yl)phenyl)-6-hydroxy-2,4-dioxo-1,2,3,4-tetrahydropyrimidine-5-carboximidamide]",particularly potent inhibitors
7,"COc1nc(O)c(C(=O)Nc2ccc(-c3cnn[nH]3)cc2)c(=O)[nH]1 [Formula (IIb), N-(4-(3H-1,2,3-triazol-4-yl)phenyl)-4-hydroxy-2-methoxy-6-oxo-1,6-dihydropyrimidine-5-carboxamide]",particularly potent inhibitors
8,"O=c1[nH]c(=O)c2c(Nc3ccc(-c4cnn[nH]4)cc3)n[nH]c2[nH]1 [Formula (VIb), 3-((4-(1H-1,2,3-triazol-5-yl)phenyl)amino)-1H-pyrazolo[3,4-d]pyrimidine-4,6(5H,7H)-dione]",particularly potent inhibitors
9,"O=c1[nH]c(O)c(/C(=N\O)Nc2ccc(-c3cnn[nH]3)cc2)c(=O)[nH]1 [Formula (Ic), (E)-N-(4-(1H-1,2,3-triazol-5-yl)phenyl)-N′-hydroxy-2,4,6-trioxohexahydro-pyrimidine-5-carboximidamide]",particularly potent inhibitors
10,"O=c1[nH]c(=O)c2c(Nc3ccc(-c4cnn[nH]4)cc3)noc2[nH]1 [Formula (VIa), 3-((4-(1H-1,2,3-triazol-5-yl)phenyl)amino)isoxazolo[5,4-d]pyrimidine-4,6(5H,7H)-dione]",particularly potent inhibitors
